Measurements as given in ChEMBL document CHEMBL1201862, “PubChem BioAssay data set” (2004).
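A five-concentration, 48-hour dose response in 96-well plates underlies each endpoint, interpolated linearly between surrounding concentrations. GI50 = concentration required for 50% inhibition of growth.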 Calls of active or inactive are those of the source. Rule as the data show it: active = GI50 up to about 1.1 µM and inactive = higher.

Columns and labels:
Test in all cases: DTP human tumour cell line panel, 48 h
[1] = test system: SR
[2] = test system: HT-29
[3] = test system: MOLT-4
[4] = test system: T47D
[5] = test system: SW-620
[6] = test system: IGROV-1
[7] = test system: SK-OV-3
[8] = test system: SNB-75
[9] = test system: SN12C
[10] = test system: A498
[11] = test system: COLO 205
[12] = test system: NCI/ADR-RES
[13] = test system: OVCAR-5
[14] = test system: OVCAR-4
[15] = test system: EKVX
[16] = test system: 786-0
[17] = test system: MCF7
[18] = test system: ACHN
[19] = test system: SNB-19
[20] = test system: DLD-1

Row | Structure (SMILES) | GI50 [1] | GI50 [2] | GI50 [3] | GI50 [4] | GI50 [5] | GI50 [6] | GI50 [7] | GI50 [8] | GI50 [9] | GI50 [10] | GI50 [11] | GI50 [12] | GI50 [13] | GI50 [14] | GI50 [15] | GI50 [16] | GI50 [17] | GI50 [18] | GI50 [19] | GI50 [20]
1 | C=C(C)c1nc(Oc2ccccc2)nc(Oc2ccccc2)n1 | 2.86 µM (inactive) | 3.99 µM (inactive) | 0.664 µM (active) | 5.36 µM (inactive) | 3.82 µM (inactive) | 9.38 µM (inactive) | 17.6 µM (inactive) | 9.75 µM (inactive) | 5.6 µM (inactive) | 17.3 µM (inactive) | 5.42 µM (inactive) | 10.9 µM (inactive) | 16.6 µM (inactive) | 11.2 µM (inactive) | 13.6 µM (inactive) | 4.58 µM (inactive) | 3.08 µM (inactive) | 8.63 µM (inactive) | 9.33 µM (inactive) | 2.72 µM (inactive)
2 | Cc1cc(N(CCC#N)S(=O)(=O)c2ccccc2)ccc1/C=N/c1ccc(C(=O)O)cc1 |  | 15.7 µM (inactive) | 6.98 µM (inactive) | > 100 µM (inactive) | 7.43 µM (inactive) | 30 µM (inactive) | 34.1 µM (inactive) | 14 µM (inactive) | 6.21 µM (inactive) | 29.6 µM (inactive) | 6.41 µM (inactive) |  | 20.3 µM (inactive) | 5.62 µM (inactive) | 17.9 µM (inactive) | 5.45 µM (inactive) | > 100 µM (inactive) |  | 29.6 µM (inactive) | 1.99 µM (inactive)
3 | CCCCCCCCCCCCCCCCCC(=O)OCC(CN(C)CCN(C)C)OC(=O)CCCCCCCCCCCCCCCCC (stereo not drawn) | 35.9 µM (inactive) | 40.2 µM (inactive) | 27.1 µM (inactive) |  | > 100 µM (inactive) | > 100 µM (inactive) | > 100 µM (inactive) | 98.2 µM (inactive) | > 100 µM (inactive) | > 100 µM (inactive) | > 100 µM (inactive) |  | > 100 µM (inactive) | > 100 µM (inactive) | > 100 µM (inactive) | > 100 µM (inactive) |  | 91.6 µM (inactive) | > 100 µM (inactive) | 89.7 µM (inactive)
4 | CCCCCC(C[N+]1(C)CCOCC1)C(=O)/C=C/c1ccccc1 (stereo not drawn) | 2.91 µM (inactive) | 5.31 µM (inactive) | 3.03 µM (inactive) |  | 2.62 µM (inactive) | 19.4 µM (inactive) | 46.5 µM (inactive) | 7.33 µM (inactive) | 13.5 µM (inactive) | 15.1 µM (inactive) | 15.7 µM (inactive) |  | 17.4 µM (inactive) | 11.2 µM (inactive) | 19.9 µM (inactive) | 2 µM (inactive) |  | 23.6 µM (inactive) | 12 µM (inactive) | 6.25 µM (inactive)
5 | O=C1Sc2sc(=S)sc2SC1c1ccccc1 (stereo not drawn) |  | 40.8 µM (inactive) | 31.6 µM (inactive) |  | 21.1 µM (inactive) | > 100 µM (inactive) | > 100 µM (inactive) | > 50.2 µM (inactive) | > 89.7 µM (inactive) | > 100 µM (inactive) | 37.2 µM (inactive) | 40.5 µM (inactive) | > 100 µM (inactive) | 18.3 µM (inactive) | > 100 µM (inactive) |  | 67.9 µM (inactive) |  | > 73.1 µM (inactive) | 32.2 µM (inactive)
6 | O=P1(NCCCl)OCCC(OO)N1CCCl (stereo not drawn) | > 100 µM (inactive) | 36.6 µM (inactive) | > 36.9 µM (inactive) | 0.316 µM (active) | 15.7 µM (inactive) | > 100 µM (inactive) | > 94 µM (inactive) | 32.7 µM (inactive) | 37.4 µM (inactive) |  | 33.1 µM (inactive) | 28.7 µM (inactive) | 42.9 µM (inactive) | 20.5 µM (inactive) | > 100 µM (inactive) | 26.1 µM (inactive) | 24.9 µM (inactive) | 14.4 µM (inactive) | > 52 µM (inactive) | 21.2 µM (inactive)
7 | O=C1/C(=C/c2ccc(Cl)cc2)CCC1CN1CCOCC1 (stereo not drawn) | 0.687 µM (active) | 7.03 µM (inactive) | 1.12 µM (inactive) | 0.678 µM (active) | 2.47 µM (inactive) | 6.32 µM (inactive) | 18 µM (inactive) | 20.5 µM (inactive) | 3.78 µM (inactive) | 19.6 µM (inactive) | 7.8 µM (inactive) | 4.88 µM (inactive) | 23.2 µM (inactive) | 17.5 µM (inactive) | 12.2 µM (inactive) | 2.48 µM (inactive) | 3.77 µM (inactive) | 11.2 µM (inactive) | 14.8 µM (inactive) | 2.52 µM (inactive)
8 | C=C(CN(C)C)C(=O)c1ccc(OC)cc1 | 1.05 µM (active) | 5.71 µM (inactive) | 0.52 µM (active) | 0.881 µM (active) | 0.771 µM (active) | 10.7 µM (inactive) | 24.7 µM (inactive) | 15.5 µM (inactive) | 2.48 µM (inactive) | 9.79 µM (inactive) | 0.326 µM (active) | 8.32 µM (inactive) | 13.6 µM (inactive) | 5.26 µM (inactive) | 18.7 µM (inactive) | 1.72 µM (inactive) | 2.77 µM (inactive) | 1.12 µM (active) | 20 µM (inactive) | 0.427 µM (active)
9 | CNC=O | > 10000 µM (inactive) | > 10000 µM (inactive) | > 10000 µM (inactive) | > 10000 µM (inactive) | > 10000 µM (inactive) | > 10000 µM (inactive) | > 3980 µM (inactive) | 8150 µM (inactive) | > 7740 µM (inactive) | > 9710 µM (inactive) | > 10000 µM (inactive) | > 10000 µM (inactive) | > 10000 µM (inactive) | > 10000 µM (inactive) | > 10000 µM (inactive) | > 10000 µM (inactive) | > 10000 µM (inactive) | > 10000 µM (inactive) | > 10000 µM (inactive) | > 10000 µM (inactive)
10 | O=C1C=CC(=C(c2ccc(O)cc2)c2ccc(O)cc2)C=C1 [AURIN] | 2.36 µM (inactive) | 18.6 µM (inactive) | 4.71 µM (inactive) |  | 12.5 µM (inactive) | 13.6 µM (inactive) | 17.9 µM (inactive) | 3.21 µM (inactive) | 8.47 µM (inactive) | 17.7 µM (inactive) | 17.7 µM (inactive) |  | 18.2 µM (inactive) | 14.4 µM (inactive) | 15.1 µM (inactive) | 13.6 µM (inactive) |  | 15.2 µM (inactive) | 15.6 µM (inactive) | 10.3 µM (inactive)
